Experimental data: patent publication US9217163B2 (priority 2007, dated 2015)
Like-named read-outs stand apart in the source and are kept apart here.

Assays:
[1] = test system: biological systems; conditions: Jones and Wood, 1986; cited from earlier work
[2] = test system: Clostridium beijerinckii ATCC 10132; conditions: butanol 1.5% to 3.5%, 37° C., 144 h
Procedure: The tolerance was tested in both, the un-optimized AnS medium and optimized AnS medium. The bottles were inoculated with Clostridium beijerinckii ATCC 10132 After inoculation, the medium was incubated at 37° C. for 144 h and the OD at 600 nm was monitored at a regular interval of 12 h.

## CCCCO [butanol, n-butanol]
[1]
  concentration at which butanol is highly toxic to biological systems: 2%
[2]; optimized AnS medium
  butanol concentration tolerated (growth, OD 600 nm): ≤ 3.5%
[2]; un-optimized AnS medium
  butanol concentration tolerated (growth, OD 600 nm): up to 3.0%
